# Laboratory results published in ChEMBL document CHEMBL5532698, “2,3-Dihydroquinazolin-4(1H)-ones and quinazolin-4(3H)-ones as broad-spectrum cytotoxic agents and their impact on tubulin polymerisation” (RSC Med Chem, 2024).
# Columns and labels:
# A2780 [1] = experiment: Antiproliferative activity against human A2780 cells assessed as cell growth inhibition at 25 uM incubated for 72 hrs by MTT assay relative to control; type: functional
# HT-29 [2] = experiment: Antiproliferative activity against human HT-29 cells assessed as cell growth inhibition at 25 uM incubated for 72 hrs by MTT assay relative to control; type: functional
# DU-145 [3] = experiment: Antiproliferative activity against human DU-145 cells assessed as cell growth inhibition incubated for 72 hrs by MTT assay; type: functional
# A-431 [4] = experiment: Antiproliferative activity against human A-431 cells assessed as cell growth inhibition incubated for 72 hrs by MTT assay; type: functional
# [5] = Cytotoxicity against human MCF-10A cells assessed as cell growth inhibition incubated for 72 hrs by MTT assay; type: toxicity, cell-based
# [6] = Antiproliferative activity against human SJG2 cells assessed as cell growth inhibition incubated for 72 hrs by MTT assay; type: functional; conditions: SJ-G2
# BE(2)-C [7] = experiment: Antiproliferative activity against human BE2C cells assessed as cell growth inhibition incubated for 72 hrs by MTT assay; type: functional
# [8] = Antiproliferative activity against human SJG2 cells assessed as cell growth inhibition at 25 uM incubated for 72 hrs by MTT assay relative to control; type: functional; conditions: SJ-G2
# BE(2)-C [9] = experiment: Antiproliferative activity against human BE2C cells assessed as cell growth inhibition at 25 uM incubated for 72 hrs by MTT assay relative to control; type: functional
# A-431 [10] = experiment: Antiproliferative activity against human A-431 cells assessed as cell growth inhibition at 25 uM incubated for 72 hrs by MTT assay relative to control; type: functional
# NCI-H460 [11] = experiment: Antiproliferative activity against human NCI-H460 cells assessed as cell growth inhibition incubated for 72 hrs by MTT assay; type: functional
# U-87 MG [12] = experiment: Antiproliferative activity against human U87 cells assessed as cell growth inhibition incubated for 72 hrs by MTT assay; type: functional, U-87MG ATCC
# MIA PaCa-2 [13] = experiment: Antiproliferative activity against human MIA PaCa-2 cells assessed as cell growth inhibition at 25 uM incubated for 72 hrs by MTT assay relative to control; type: functional
# MCF7 [14] = experiment: Antiproliferative activity against human MCF7 cells assessed as cell growth inhibition at 25 uM incubated for 72 hrs by MTT assay relative to control; type: functional
# U-87 MG [15] = experiment: Antiproliferative activity against human U87 cells assessed as cell growth inhibition at 25 uM incubated for 72 hrs by MTT assay relative to control; type: functional, U-87MG ATCC
# [16] = Cytotoxicity against human MCF-10A cells assessed as cell growth inhibition at 25 uM incubated for 72 hrs by MTT assay relative to control; type: toxicity, cell-based
# DU-145 [17] = experiment: Antiproliferative activity against human DU-145 cells assessed as cell growth inhibition at 25 uM incubated for 72 hrs by MTT assay relative to control; type: functional
# HT-29 [18] = experiment: Antiproliferative activity against human HT-29 cells assessed as cell growth inhibition incubated for 72 hrs by MTT assay; type: functional
# MIA PaCa-2 [19] = experiment: Antiproliferative activity against human MIA PaCa-2 cells assessed as cell growth inhibition incubated for 72 hrs by MTT assay; type: functional
# MCF7 [20] = experiment: Antiproliferative activity against human MCF7 cells assessed as cell growth inhibition incubated for 72 hrs by MTT assay; type: functional
# NCI-H460 [21] = experiment: Antiproliferative activity against human NCI-H460 cells assessed as cell growth inhibition at 25 uM incubated for 72 hrs by MTT assay relative to control; type: functional
# A2780 [22] = experiment: Antiproliferative activity against human A2780 cells assessed as cell growth inhibition incubated for 72 hrs by MTT assay; type: functional
Compound,inhibition at 25 µM (A2780 [1]) [%],inhibition at 25 µM (HT-29 [2]) [%],GI50 (DU-145 [3]) [µM],GI50 (A-431 [4]) [µM],GI50 at 72 h [5] [µM],GI50 [6] [µM],GI50 (BE(2)-C [7]) [µM],inhibition at 25 µM [8] [%],inhibition at 25 µM (BE(2)-C [9]) [%],inhibition at 25 µM (A-431 [10]) [%],GI50 (NCI-H460 [11]) [µM],GI50 (U-87 MG [12]) [µM],inhibition at 25 µM (MIA PaCa-2 [13]) [%],inhibition at 25 µM (MCF7 [14]) [%],inhibition at 25 µM (U-87 MG [15]) [%],"inhibition at 72 h, 25 µM [16] [%]",GI50 (HT-29 [18]) [µM],GI50 (MIA PaCa-2 [19]) [µM],GI50 (MCF7 [20]) [µM],GI50 (A2780 [22]) [µM],also measured
O=C1NC(c2cccc([N+](=O)[O-])c2)Nc2ccccc21 (stereo not given),69,78,45,20,21,22,19,61,58,67,24,> 50,56,> 100,20,54,17,20,6.7,18,inhibition at 25 µM (DU-145 [17]): 33%; inhibition at 25 µM (NCI-H460 [21]): 59%
O=C1NC(c2cccs2)Nc2ccccc21 (stereo not given),98,90,25,7.4,15,23,9.3,60,91,> 100,15,23,74,91,56,84,7.6,18,11,4.7,inhibition at 25 µM (DU-145 [17]): 57%; inhibition at 25 µM (NCI-H460 [21]): 88%
O=C1NC(c2cccc(C(F)(F)F)c2)Nc2ccccc21 (stereo not given),100,> 100,3,2.7,3.1,3.3,3.1,> 100,> 100,> 100,3.2,3.2,95,83,> 100,> 100,2.9,4.4,5.6,2.9,inhibition at 25 µM (DU-145 [17]): > 100%; inhibition at 25 µM (NCI-H460 [21]): 100%
O=C1NC(c2cccc(O)c2)Nc2ccccc21 (stereo not given),95,> 100,16,3.7,14,12,6.4,> 100,97,> 100,14,19,86,66,65,92,6.3,15,13,3,inhibition at 25 µM (DU-145 [17]): 72%; inhibition at 25 µM (NCI-H460 [21]): 94%
O=C1NC(c2ccc(O)cc2)Nc2ccccc21 (stereo not given),95,> 100,10,3.2,9.9,8.9,4.1,> 100,100,108,10,16,84,55,72,91,3.7,8.8,12,3.2,inhibition at 25 µM (DU-145 [17]): 90%; inhibition at 25 µM (NCI-H460 [21]): 88%
O=c1[nH]c(-c2ccc(Br)cc2)nc2ccccc12,83,91,4.5,5.8,5.4,4.3,6.4,66,77,88,5.7,10,71,99,91,91,5.2,8.8,3.8,3.9,inhibition at 25 µM (DU-145 [17]): 98%; inhibition at 25 µM (NCI-H460 [21]): 68%
O=C1NC(c2ccc3ccccc3c2)Nc2ccccc21 (stereo not given),> 100,> 100,4.2,3,3.5,2.8,2.9,> 100,98,> 100,2.9,5,> 100,135,94,99,2.7,2.8,2.8,2.9,inhibition at 25 µM (DU-145 [17]): > 100%; inhibition at 25 µM (NCI-H460 [21]): 100%
N#Cc1ccc2[nH]cc(-c3nc4ccccc4c(=O)[nH]3)c2c1,,,2.8,4.9,3.5,2.8,3.4,,,,2.5,3.2,,,,,3.9,3.5,2.7,2.7,
